Reference: patent US5389663A, “1-(1h-1,2,4-triazole-yl)-2-propanol compounds” (Takeda Chemical Industries, Ltd., priority 1991, dated 1995)
Where two headings read alike, the source gives them in different places.

What was measured:
[1] = system: Candida albicans; test: Protective effect against Candida albicans infection in mice; type: in vivo, Crj:CDF1 mice; settings: 168 h, minimum lethal dose of Candida albicans iv, drug once immediately after infection, survival 7 days after infection
Excerpt: Test Method: Five-week old Crj:CDF1 mice were inoculated with the minimum lethal dose of Candida albicans intravenously. The test drug was given once immediately after infection. The effectiveness of the drug was expressed in ED50 values calculated by the Reed and Muench method from the survival rate 7 days after infection.

[2] = system: Candida albicans IFO 0583; test: Paper disc agar diffusion, growth inhibition zone, Candida albicans IFO 0583; type: cell-based; settings: 28° C., 8 mm disc
Protocol: (§1) Evaluation of the antifungal activities of the compound of formula (I) was conducted by the following method: a sheet of filter paper disc (manufactured by Toyo Seisakusho, 8 mm in diameter) soaked in a […] solution of a compound of formula (I) in methanol was placed on an agar plate containing various fungi, which was incubated at 28° C. for two days, and the diameter of the growth inhibition zone around the filter paper disc was measured. The following culture media were used: A: yeast nitrogen base agar medium (pH 7.0) B: Sabouraud agar medium
cpd. No. (Medium A, 28° C., two-day culture)

[3] = system: Aspergillus fumigatus IFO 6344; test: Paper disc agar diffusion, growth inhibition zone, Aspergillus fumigatus IFO 6344; type: cell-based; settings: IFO6344, 48 h, Table 4, medium A, 28° C., two days, 1000 μ/ml, 8 mm disc, read-out: Diameter of growth inhibition zone
Protocol: as §1

[4] = system: Trichophyton rubrum IFO 6467; test: Paper disc agar diffusion, growth inhibition zone, Trichophyton rubrum IFO 6467; type: cell-based; settings: IFO6467, 48 h, Table 4, medium B (Sabouraud agar), 28° C., two days, 1000 μ/ml, 8 mm disc, read-out: Diameter of growth inhibition zone
Protocol: as §1

[5] = system: Candida utilis IFO 0619; test: Paper disc agar diffusion, growth inhibition zone, Candida utilis IFO 0619; type: cell-based; settings: Williopsis jadinii, IFO0619, 48 h; Table 4; medium A, 28° C., two days, 1000 μ/ml, 8 mm disc; read-out: Diameter of growth inhibition zone
Protocol: as §1

[6] = system: Trichophyton mentagrophytes IFO 7522; test: Paper disc agar diffusion, growth inhibition zone, Trichophyton mentagrophytes IFO 7522; type: cell-based; settings: IFO7522, 48 h, Table 4, medium B (Sabouraud agar), 28° C., two days, 1000 μ/ml, 8 mm disc, read-out: Diameter of growth inhibition zone
Protocol: as §1

[7] = system: Microsporum gypseum IFO 6075; test: Paper disc agar diffusion, growth inhibition zone, Microsporum gypseum IFO 6075; type: cell-based; settings: Nannizzia gypsea, IFO6075, 48 h; Table 4; medium B (Sabouraud agar), 28° C., two days, 1000 μ/ml, 8 mm disc; read-out: Diameter of growth inhibition zone
Protocol: as §1

[8] = system: Cryptococcus neoformans IFO 0410; test: Paper disc agar diffusion, growth inhibition zone, Cryptococcus neoformans IFO 0410; type: cell-based; settings: IFO0410, 48 h, Table 4, medium A, 28° C., two days, 1000 μ/ml, 8 mm disc, read-out: Diameter of growth inhibition zone
Protocol: as §1

[9] = system: Aspergillus niger IFO 4066; test: Paper disc agar diffusion, growth inhibition zone, Aspergillus niger IFO 4066; type: cell-based; settings: IFO4066, 48 h, Table 4, medium A, 28° C., two days, 1000 μ/ml, 8 mm disc, read-out: Diameter of growth inhibition zone
Protocol: as §1

[10] = Candida albicans, IFO0583, 48 h, Table 5, Medium A, two-day culture, 1000 μ/ml, read-out: Diameter of growth-inhibition zone

| Structure (SMILES) | ED50 ([1]; po) | zone of inhibition at 1000 µg/mL [2, 10] | further results |
| --- | --- | --- | --- |
| C[C@H]([C@](O)(Cn1cncn1)c1ccc(F)cc1F)S(=O)(=O)N1CCOCC1 [Compound 8, 4-[(2R,3R)-3-(2,4-difluorophenyl)-3-hydroxy-4-(1H-1,2,4-triazol-1-yl)-2-butylsulfonyl]morpholine] | 20 mg/kg | 40 mm | ED50 ([1]; sc): 28.3 mg/kg |
| C[C@H]([C@](O)(Cn1cncn1)c1ccc(F)cc1F)S(=O)(=O)NC1CC1 [Compound 10, N-cyclopropyl-[(2R,3R)-3-(2,4-difluorophenyl)-3-hydroxy-4-(1H-1,2,4-triazol-1-yl)-2-butane]sulfonamide] | 7.07 mg/kg | 35 mm | ED50 ([1]; sc): 14.1 mg/kg |
| CNS(=O)(=O)[C@H](C)[C@](O)(Cn1cncn1)c1ccc(F)cc1F [Compound 12, N-methyl-[(2R,3R)-3-(2,4-difluorophenyl)-3-hydroxy-4(1H -1,2,4-triazol-1-yl)-2-butane]sulfonamide] | 5 mg/kg | 37 mm |  |
| CCNS(=O)(=O)[C@H](C)[C@](O)(Cn1cncn1)c1ccc(F)cc1F [Compound 14, N-ethyl-[(2R,3R)-3-(2,4-difluorophenyl)-3-hydroxy-4-(1H-1,2,4-triazol-1-yl)-2-butane]sulfonamide] | 5 mg/kg | 38 mm |  |
| CCCNS(=O)(=O)[C@H](C)[C@](O)(Cn1cncn1)c1ccc(F)cc1F [Compound 16, N-propyl-[(2R,3R)-3-(2,4-difluorophenyl)-3-hydroxy-4-(1H-1,2,4-triazol-1-yl)-2butane]sulfonamide] | 5 mg/kg | 40 mm |  |
| C[C@@H](SNc1ccc(Br)cc1)[C@](O)(Cn1cncn1)c1ccc(F)cc1F [Compound 21, N-(4-bromophenyl)-[(2R,3R)-3-(2,4-difluorophenyl)-3-hydroxy-4-(1H-1,2,4-triazol-1-yl)-2butane]sulfenamide] |  |  | zone of inhibition at 1000 µg/mL [3]: 30 mm; zone of inhibition at 1000 µg/mL [4]: 45 mm; zone of inhibition at 1000 µg/mL [5]: 40 mm; zone of inhibition at 1000 µg/mL [6]: 25 mm; zone of inhibition at 1000 µg/mL [7]: 24 mm; zone of inhibition at 1000 µg/mL ([2]; 48 h, pH 7, Table 4, medium A (yeast nitrogen base agar, pH 7.0), two days, 1000 μ/ml in methanol, read-out: Diameter of growth inhibition zone): 43 mm; zone of inhibition at 1000 µg/mL [8]: 30 mm; zone of inhibition at 1000 µg/mL [9]: 20 mm |
| C[C@H]([C@](O)(Cn1cncn1)c1ccc(F)cc1F)S(=O)(=O)NCC(F)(F)F [Compound 39, N-(2,2,2-trifluoroethyl)-[(2R,3R)-3-(2,4-difluorophenyl)-3-hydroxy-4-(1H-1,2,4-triazol-1-yl)-2-butane]sulfonamide] | 8 mg/kg | 40 mm |  |
| C[C@H]([C@](O)(Cn1cncn1)c1ccc(F)cc1F)S(=O)(=O)N(C)CC(F)(F)F [Compound 46, N-methyl-N-(2,2,2-trifluoroethyl)-[(2R,3R)-3-(2,4-difluorophenyl)-3-hydroxy-4-(1H-1,2,4-triazol-1-yl)-2-butane]sulfonamide] | 8 mg/kg | 45 mm |  |
| CCN(C)S(=O)(=O)[C@H](C)[C@](O)(Cn1cncn1)c1ccc(F)cc1F [Compound 48, N-ethyl-N-methyl[(2R,3R)-3-(2,4-difluorophenyl)-3-hydroxy-4-(1H-1,2,4-triazol-1-yl)-2-butane]sulfonamide] | 11.3 mg/kg | 48 mm |  |
| C[C@@H](NS(C)(=O)=O)[C@](O)(Cn1cncn1)c1ccc(F)cc1F [Compound 49, N-[(2R,3R)-3-(2,4-difluorophenyl)-3-hydroxy-4-(1H-1,2,4-triazol-1-yl)-2-butyl]methanesulfonamide] | 1.8 mg/kg | 30 mm |  |
| C[C@@H](NS(=O)(=O)c1ccc([N+](=O)[O-])cc1)[C@](O)(Cn1cncn1)c1ccc(F)cc1F [Compound 51] | 8 mg/kg | 38 mm |  |
| C[C@@H](N(C)S(C)(=O)=O)[C@](O)(Cn1cncn1)c1ccc(F)cc1F [Compound 53, N-[(2R,3R)-3-(2,4-difluorophenyl)-3-hydroxy-4-(1H-1,2,4-triazol-1-yl) -2-butyl]-N-methylmethanesulfornamide] | 3.5 mg/kg | 40 mm |  |
| C[C@@H](N(C)S(=O)(=O)CC(F)(F)F)[C@](O)(Cn1cncn1)c1ccc(F)cc1F [Compound 54] | 3.5 mg/kg | 40 mm |  |
| C[C@@H](NS(=O)(=O)CC(F)(F)F)[C@](O)(Cn1cncn1)c1ccc(F)cc1F [Compound 55] | 2 mg/kg | 35 mm |  |
| C[C@H]([C@](O)(Cn1cncn1)c1ccc(F)cc1F)S(=O)(=O)NCc1ccccc1 [Compound 58, N-benzyl-[(2R,3R)-3-(2,4-difluorophenyl)-3-hydroxy-4-(1H-1,2,4-triazol-1-yl)-2-butane]sulfonamide] | 8 mg/kg | 40 mm |  |
| C[C@H]([C@](O)(Cn1cncn1)c1ccc(F)cc1F)S(=O)(=O)NC(c1ccccc1)c1ccccc1 [Compound 59, N-diphenylmethyl-[(2R,3R)-3-(2,4-difluorophenyl)-3-hydroxy-4-(1H-1,2,4-triazol-1-yl)-2-butane]sulfonamide] | 11.3 mg/kg | 30 mm |  |
| C[C@H]([C@](O)(Cn1cncn1)c1ccc(F)cc1F)S(=O)(=O)N(C)Cc1cccnc1 [Compound 64, N-(3-pyridylmethyl)-N-methyl-[(2R,3R)-3-(2,4-difluorophenyl)-3-hydroxy-4-(1H-1,2,4-triazol-1-yl)-2-butane]sulfonamide] | 2.8 mg/kg | 40 mm |  |
| C[C@H]([C@](O)(Cn1cncn1)c1ccc(F)cc1F)S(N)(=O)=O [Compound 65, (2R,3R)-3-(2,4-difluorophenyl)-3-hydroxy-4-(1H-1,2,4-triazol-1-yl)-2-butanesulfonamide] | 11.3 mg/kg | 30 mm |  |
| C[C@H]([C@](O)(Cn1cncn1)c1ccc(F)cc1F)S(=O)(=O)N1CCN(c2ccc(OCC(F)(F)F)cc2)CC1 [Compound 70, 4-[(2R,3R)-3-(2,4-difluorophenyl)-3-hydroxy-4-(1H-1,2,4-triazol-1-yl)-2-butanesulfonyl]-1-[4-(2,2,2-trifluoroethoxy)phenyl]piperazine] | 8 mg/kg | 42 mm |  |
| C[C@H]([C@](O)(Cn1cncn1)c1ccc(F)cc1F)S(=O)(=O)N1CCN(c2ccc(F)cc2)CC1 [Compound 71, 4-[(2R,3R)-3-(2,4-difluorophenyl)-3-hydroxy-4-(1H-1,2,4-triazol-1-yl)-2-butanesulfonyl]-1(4-fluorophenyl)piperazine] | 8 mg/kg | 47 mm |  |
| C[C@H]([C@](O)(Cn1cncn1)c1ccc(F)cc1F)S(=O)(=O)N1CCN(c2ccc(C(F)(F)F)cc2)CC1 [Compound 73, 4-[(2R,3R)-3-(2,4-difluorophenyl)-3-hydroxy-4-(1H-1,2,4-triazol-1-yl)-2-butanesulfonyl]-1-(4-trifluoromethylphenyl)piperazine] | 6.4 mg/kg | 32 mm |  |
| C[C@H]([C@](O)(Cn1cncn1)c1ccc(F)cc1F)S(=O)(=O)N(C)Cc1nccn1C [Compound 75] | 8 mg/kg | 34 mm |  |
| C[C@H]([C@](O)(Cn1cncn1)c1ccc(F)cc1F)S(=O)(=O)N(C)Cc1ccncc1 [Compound 76] | 8 mg/kg | 40 mm |  |
| C[C@H]([C@](O)(Cn1cncn1)c1ccc(F)cc1F)S(=O)(=O)N(C)Cc1nccs1 [Compound 78] | 8 mg/kg | 40 mm |  |
| C[C@H]([C@](O)(Cn1ccnc1)c1ccc(F)cc1F)S(=O)(=O)N(C)Cc1ccc(C(F)(F)F)cc1 [Compound 86, N-methyl-N-(4-trifluoromethylbenzyl)-[(2R,3R)-3-(2,4-difluorophenyl)-3-hydroxy-4-(1-imidazolyl)-2-butane]sulfonamide] | 8 mg/kg | 35 mm |  |
| C[C@H]([C@](O)(Cn1cncn1)c1ccc(F)cc1F)S(=O)(=O)N1CCN(c2nc(Cl)ncc2F)CC1 [Compound 91, 1-[(2R,3R)-3-(2,4-difluorophenyl)-3-hydroxy-4-(1H-1,2,4-triazol-1-yl)-2-butanesulfonyl]-4-(2-chloro-5-fluoropyrimidin-4-yl)piperazine] | 11.3 mg/kg | 50 mm |  |
